Reference: patent US10874743B2, “IRAK degraders and uses thereof” (Kymera Therapeutics, Inc., priority 2017, dated 2020)

Target: T1, IRAK4 (Homo sapiens, UniProt Q9NWZ3)
T1 sequence (Q9NWZ3 1-460): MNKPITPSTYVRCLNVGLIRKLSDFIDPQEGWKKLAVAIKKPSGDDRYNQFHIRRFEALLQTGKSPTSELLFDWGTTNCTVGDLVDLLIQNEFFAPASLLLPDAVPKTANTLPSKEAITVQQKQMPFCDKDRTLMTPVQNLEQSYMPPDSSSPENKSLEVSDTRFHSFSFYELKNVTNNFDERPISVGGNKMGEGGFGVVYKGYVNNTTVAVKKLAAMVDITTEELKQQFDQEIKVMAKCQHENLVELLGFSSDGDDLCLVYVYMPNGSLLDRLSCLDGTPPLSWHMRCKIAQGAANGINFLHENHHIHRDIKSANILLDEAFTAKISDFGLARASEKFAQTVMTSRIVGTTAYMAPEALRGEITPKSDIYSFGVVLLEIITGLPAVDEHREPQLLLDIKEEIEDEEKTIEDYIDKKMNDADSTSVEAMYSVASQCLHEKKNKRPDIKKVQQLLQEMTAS
Assay: OCI-LY-10 degradation assay (western blot, % IRAK4 degraded after 4 hours)
Format: cell-based
Parameters: endogenous in cells; host or cells: OCI-LY10
Details: OCI-LY10 cells; for OCI-LY10 % IRAK4 Degradation (0.01 uM) / OCI-LY10 % IRAK4 Degradation (0.1 uM) / OCI-LY10 % IRAK4 Degradation (1 uM): 4 hours; for OCI-LY10 % IRAK4 Degradation (0.01 uM): 0.01 uM compound; for OCI-LY10 % IRAK4 Degradation (0.1 uM): 0.1 uM compound; for OCI-LY10 % IRAK4 Degradation (1 uM): 1 uM compound; for OCI-LY10 % IRAK4 Degradation: IRAK4 degraded after 4 hours, western blot
Method in brief: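 OCI-LY10 cells (RPMI-1640, 20% FBS, 55 μM 2-ME) treated with compound at 0.003-10 μM final for 4 h at 37° C, then lysed in RIPA buffer. IRAK4 level read by fluorescent western blot (20-25 μg protein) and binned as % degraded: A >50%, B >20-50%, C <20%.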

With `NC(=O)c1nn(-c2ccc(COCC3CCCCN3CCOCCNc3cccc4c3C(=O)N(C3CCC(=O)NC3=O)C4=O)cc2)cc1NC(=O)c1coc(-c2ccnc(NCC(F)(F)F)c2)n1` (stereo not shown) [I-303, N-[3-carbamoyl-1-[4-[[1-[2-[2-[[2-(2,6-dioxo-3-piperidyl)-1,3-dioxo-isoindolin-4-yl]amino]ethoxy]ethyl]-2-piperidyl]methoxymethyl]phenyl]pyrazol-4-yl]-2-[2-(2,2,2-trifluoroethylamino)-4-pyridyl]oxazole-4-carboxamide] the “OCI-LY10 % IRAK4 Degradation (0.01 uM)” value was “B (>20-50% degradation)”, the “OCI-LY10 % IRAK4 Degradation (0.1 uM)” value was “A (>50% degradation)” and the “OCI-LY10 % IRAK4 Degradation (1 uM)” value was “A (>50% degradation)”.
In the case of `O=C1CCC(N2C(=O)c3ccc(CCCCCN4CCC(n5cc(NC(=O)c6coc(-c7ccnc(NCC8CC8)c7)n6)c(C(F)F)n5)CC4)cc3C2=O)C(=O)N1` (stereo not shown) [I-263], the “OCI-LY10 % IRAK4 Degradation (0.01 uM)” value is reported as “C (<20% degradation)”, the “OCI-LY10 % IRAK4 Degradation (0.1 uM)” value is reported as “C (<20% degradation)” and the “OCI-LY10 % IRAK4 Degradation (1 uM)” value is reported as “C (<20% degradation)”.
`O=C1CCC(N2C(=O)c3cccc(NCCNCCOCCNCc4ccc(-n5cc(NC(=O)c6coc(-c7ccnc(NCC8CC8)c7)n6)c(C(F)(F)F)n5)cc4)c3C2=O)C(=O)N1` (stereo not shown) [I-307] was tested, and the “OCI-LY10 % IRAK4 Degradation (0.01 uM)” value was “C (<20% degradation)”, the “OCI-LY10 % IRAK4 Degradation (0.1 uM)” value was “C (<20% degradation)” and the “OCI-LY10 % IRAK4 Degradation (1 uM)” value was “C (<20% degradation)”.
In the case of `N#Cc1cnc2c(cnn2-c2cc(NC3CC3)c(C(=O)NCC(F)COCCNCCOCCNc3cccc4c3C(=O)N(C3CCC(=O)NC3=O)C4=O)cn2)c1` (stereo not shown) [I-94, 6-(5-Cyano-1H-pyrazolo[3,4-b]pyridin-1-yl)-4-(cyclopropylamino)-N-(3-(2-((2-(2-((2-(2,6-dioxopiperidin-3-yl)-1,3-dioxoisoindolin-4-yl)amino)ethoxy)ethyl)amino)ethoxy)-2-fluoropropyl)nicotinamide], the “OCI-LY10 % IRAK4 Degradation” value is reported as “B (>20-50% degradation)”.
`O=C1CCC(N2C(=O)c3cccc(CCCOCCNCc4ccc(-n5cc(NC(=O)c6coc(-c7ccnc(NCC8CC8)c7)n6)c(C(F)F)n5)cc4)c3C2=O)C(=O)N1` (stereo not shown) [I-367] was tested, and the “OCI-LY10 % IRAK4 Degradation (0.01 uM)” value was “B (>20-50% degradation)”, the “OCI-LY10 % IRAK4 Degradation (0.1 uM)” value was “B (>20-50% degradation)” and the “OCI-LY10 % IRAK4 Degradation (1 uM)” value was “A (>50% degradation)”.
With `NC(=O)c1nn(-c2ccc(C(=O)NCCOCCOCCOCCOCC#Cc3cccc4c3C(=O)N(C3CCC(=O)NC3=O)C4=O)cc2)cc1NC(=O)c1coc(-c2ccnc(NCC(F)(F)F)c2)n1` (stereo not shown) [I-236] the “OCI-LY10 % IRAK4 Degradation (0.01 uM)” value was “C (<20% degradation)”, the “OCI-LY10 % IRAK4 Degradation (0.1 uM)” value was “B (>20-50% degradation)” and the “OCI-LY10 % IRAK4 Degradation (1 uM)” value was “A (>50% degradation)”.
For `CC[C@@H]1[C@H](F)C(=O)N[C@@H]1COc1ncc(C#Cc2ccc(C(=O)NCCOCCOCCOCCNc3cccc4c3C(=O)N(C3CCC(=O)NC3=O)C4=O)cc2)c2cc(C(N)=O)c(OC)cc12` (stereo partly drawn) [I-126, 4-[2-[4-[2-[2-[2-[2-[[2-(2,6-Dioxo-3-piperidyl)-1,3-dioxo-isoindolin-4-yl]amino]ethoxy]ethoxy]ethoxy]ethylcarbamoyl]phenyl]ethynyl]-1-[[(2S,3S,4S)-3-ethyl-4-fluoro-5-oxo-pyrrolidin-2-yl]methoxy]-7-methoxy-isoquinoline-6-carboxamide], the “OCI-LY10 % IRAK4 Degradation” value was “B (>20-50% degradation)”.
With `N#Cc1cnc2c(cnn2-c2cc(NC3CC3)c(C(=O)N[C@H]3CC[C@H](C(=O)NCCOCCNCCOCCOCCNc4cccc5c4C(=O)N(C4CCC(=O)NC4=O)C5=O)CC3)cn2)c1` (stereo partly drawn) [I-45, 6-(5-cyano-1H-pyrazolo[3,4-b]pyridin-1-yl)-4-(cyclopropylamino)-N-((1R,4R)-4-((14-((2-(2,6-dioxopiperidin-3-yl)-1,3-dioxoisoindolin-4-yl)amino)-3,9,12-trioxa-6-azatetradecyl)carbamoyl)cyclohexyl)nicotinamide] the “OCI-LY10 % IRAK4 Degradation” value was “C (<20% degradation)”.
With `N#Cc1cnc2c(cnn2-c2cc(NC3CC3)c(C(=O)N[C@H]3CC[C@H](C(=O)NCCOCCOCCOCCNC(=O)COc4cccc5c4C(=O)N(C4CCC(=O)NC4=O)C5=O)CC3)cn2)c1` (stereo partly shown) [I-17] the “OCI-LY10 % IRAK4 Degradation” value was “C (<20% degradation)”.
In the case of `NCc1nn(-c2ccc(C(=O)NCCOCCOCCNc3cccc4c3C(=O)N(C3CCC(=O)NC3=O)C4=O)cc2)cc1NC(=O)c1coc(-c2ccnc(NCC(F)(F)F)c2)n1` (stereo not shown) [I-215], the “OCI-LY10 % IRAK4 Degradation (0.01 uM)” value is reported as “A (>50% degradation)”, the “OCI-LY10 % IRAK4 Degradation (0.1 uM)” value is reported as “A (>50% degradation)” and the “OCI-LY10 % IRAK4 Degradation (1 uM)” value is reported as “A (>50% degradation)”.
`O=C1CCC(N2C(=O)c3cccc(CNCc4ccc(-n5cc(NC(=O)c6coc(-c7ccncc7)n6)c(C(F)F)n5)cc4)c3C2=O)C(=O)N1` (stereo not shown) [I-359] was tested, and the “OCI-LY10 % IRAK4 Degradation (0.01 uM)” value was “C (<20% degradation)”, the “OCI-LY10 % IRAK4 Degradation (0.1 uM)” value was “C (<20% degradation)” and the “OCI-LY10 % IRAK4 Degradation (1 uM)” value was “C (<20% degradation)”.
For `Cc1ncsc1-c1ccc(CNC(=O)[C@@H]2C[C@@H](O)CN2C(=O)[C@@H](NC(=O)COCCOCCOCCOCCOCC(=O)N2CCN([C@H]3CC[C@H](Oc4ncnc5sc6c(c45)[C@@H](C[C@H](O)C(N)=O)CC6)CC3)CC2)C(C)(C)C)cc1` [I-123], the “OCI-LY10 % IRAK4 Degradation” value was “C (<20% degradation)”.
In the case of `CN(CCOCCCc1cccc2c1C(=O)N(C1CCC(=O)NC1=O)C2=O)Cc1ccc(-n2cc(NC(=O)c3coc(-c4ccnc(NCC5CC5)c4)n3)c(C(F)F)n2)cc1` (stereo not shown) [I-362], the “OCI-LY10 % IRAK4 Degradation (0.01 uM)” value is reported as “C (<20% degradation)”, the “OCI-LY10 % IRAK4 Degradation (0.1 uM)” value is reported as “B (>20-50% degradation)” and the “OCI-LY10 % IRAK4 Degradation (1 uM)” value is reported as “A (>50% degradation)”.
`O=C1CCC(N2C(=O)c3ccc(NC4CN(CCOCCOCCNCc5ccc(-n6cc(NC(=O)c7coc(-c8ccnc(NCC9CC9)c8)n7)c(C(F)F)n6)cc5)C4)cc3C2=O)C(=O)N1` (stereo not shown) [I-339] was tested, and the “OCI-LY10 % IRAK4 Degradation (0.01 uM)” value was “C (<20% degradation)”, the “OCI-LY10 % IRAK4 Degradation (0.1 uM)” value was “B (>20-50% degradation)” and the “OCI-LY10 % IRAK4 Degradation (1 uM)” value was “A (>50% degradation)”.
With `CC(C)(OCCOCCNc1cccc2c1C(=O)N(C1CCC(=O)NC1=O)C2=O)C(F)CNC(=O)c1cnc(-n2ncc3cc(C#N)cnc32)cc1NC1CC1` (stereo not shown) [I-79] the “OCI-LY10 % IRAK4 Degradation” value was “C (<20% degradation)”.
`CN(CCCCCCc1cccc2c1C(=O)N(C1CCC(=O)NC1=O)C2=O)Cc1ccc(-n2cc(NC(=O)c3coc(-c4ccnc(NCC5CC5)c4)n3)c(C(N)=O)n2)cc1` (stereo not shown) [I-314] was tested, and the “OCI-LY10 % IRAK4 Degradation (0.01 uM)” value was “C (<20% degradation)”, the “OCI-LY10 % IRAK4 Degradation (0.1 uM)” value was “B (>20-50% degradation)” and the “OCI-LY10 % IRAK4 Degradation (1 uM)” value was “B (>20-50% degradation)”.
With `N#Cc1cnc2c(cnn2-c2cc(NC3CC3)c(C(=O)NCC(F)COc3cccc4c3C(=O)N(C3CCC(=O)NC3=O)C4=O)cn2)c1` (stereo not shown) [I-173, 6-(5-Cyanopyrazolo[3,4-b]pyridin-1-yl)-4-(cyclopropylamino)-N-[3-[2-(2,6-dioxo-3-piperidyl)-1,3-dioxo-isoindolin-4-yl]oxy-2-fluoro-propyl]pyridine-3-carboxamide] the “OCI-LY10 % IRAK4 Degradation” value was “C (<20% degradation)”.
For `CN(CCCCCCCCCc1cccc2c1C(=O)N(C1CCC(=O)NC1=O)C2=O)Cc1ccc(-n2cc(NC(=O)c3coc(-c4ccnc(NCC5CC5)c4)n3)c(C(N)=O)n2)cc1` (stereo not shown) [I-316], the “OCI-LY10 % IRAK4 Degradation (0.01 uM)” value was “B (>20-50% degradation)”, the “OCI-LY10 % IRAK4 Degradation (0.1 uM)” value was “B (>20-50% degradation)” and the “OCI-LY10 % IRAK4 Degradation (1 uM)” value was “B (>20-50% degradation)”.
With `NC(=O)c1nn(-c2ccc(C(=O)NCCCCCNCCNc3cccc4c3C(=O)N(C3CCCNC3=O)C4=O)cc2)cc1NC(=O)c1coc(-c2ccnc(NCC(F)(F)F)c2)n1` (stereo not shown) [I-333] the “OCI-LY10 % IRAK4 Degradation (0.01 uM)” value was “C (<20% degradation)”, the “OCI-LY10 % IRAK4 Degradation (0.1 uM)” value was “C (<20% degradation)” and the “OCI-LY10 % IRAK4 Degradation (1 uM)” value was “C (<20% degradation)”.
